For assay [1], the system named is Pi-GT1b-Rluc replicon. Description: Replicon antiviral assay, transient transfection, luciferase activity (GT1b). Format: cell-based, Hepatitis C virus genotype 1b. The note with it: Hepatitis C virus. The protocol: (§1) Replicon RNA were electroporated into 1C cells as described above. After transfection, cells were quickly transferred into 100 mL of pre-warmed culture medium, and 90 μl was seeded in 384-well plates at a density of 2,000 cells/well. Cells were treated with three-fold serial drug dilutions at 10 different concentrations. Cell plates were incubated at 37° C. for 3 days, after which culture medium was removed and cells were assayed for luciferase activity as markers for replicon levels. Luciferase expression was quantified using a commercial luciferase assay (Promega). Luciferase levels were converted into percentages relative to the levels in the untreated controls (defined as 100%), and data were fitted to the logistic dose-response equation y=a/[1+(x/b)^c] using XLFit4 software (IDBS, Emeryville, Calif.).
(§2) Five different classes of HCV inhibitors as listed in the first column were evaluated for their antiviral activities against Pi-GT6a-Rluc and Pi-GT1b-Rluc replicons in a high throughput 384-well transient transfection assay, by measuring luciferase activity (Table 5). The data represents an average of at least two independent experiments with standard deviations.
In general terms: A replicon is a self-replicating genome or part of one, used to study replication in cells.

For assay [2], the system named is Pi-GT6a-Rluc replicon. Description: Replicon antiviral assay, luciferase-encoding GT6a replicon (Table 4). It counts as cell-based, Hepatitis C virus genotype 6a. Particulars: for EC50: Hepatitis C virus, GT6A, 72 h, read-out: GT6a EC50. The protocol:
as §1

Assay [3] deals with GT6aRluc-K34R replicon. The assay is described as follows: Replicon antiviral assay, transient transfection, luciferase activity (GT6a, NS4A K34R). The note with it: for EC50: Hepatitis C virus, 1C cells, 384-well transient transfection, mean ± SD of at least two experiments. It counts as cell-based, Hepatitis C virus genotype 6a. The protocol:
as §1, §2

Assay [4] concerns GT6aRluc-K272R replicon. Description: Replicon antiviral assay, transient transfection, luciferase activity (GT6a, NS3 K272R). Format: cell-based, Hepatitis C virus genotype 6a. Particulars: for EC50: Hepatitis C virus, 1C cells, 384-well transient transfection, mean ± SD of at least two experiments. The protocol: as §1, §2
Setting [5] is: 72 h, Table 4, 1C cells, 384-well, 3 days, mean ± SD, read-out: GT1b EC50.
Where [6] appears, read: Table 4, 1C cells, 384-well, 3 days, mean ± SD, adaptive mutation not stated.
The mark [7] stands for this setting: Table 5, read-out: GT6aRluc-K34R EC50.
The mark [8] stands for this setting: Table 5, 1C cells, 384-well transient transfection, mean ± SD of at least two experiments, read-out: GT1bRluc EC50.
[9] abbreviates: Table 5, read-out: GT6aRluc-K272R EC50.
Setting [10] is: read-out: GT6aRluc-K34R EC50, Table 5.
Setting [11] is: read-out: GT6aRluc-K272R EC50, Table 5.

Where two headings read alike, the source gives them in different places. A value given as a limit tells only on which side of the number the result lay.

As to `CCC1C[C@]1(NC(=O)[C@@H]1C[C@@H](Oc2cc(-c3csc(NC(C)C)n3)nc3c(Cl)c(OCCN4CCOCC4)ccc23)CN1C(=O)[C@@H](NC(=O)O[C@@H]1C[C@@H]2C[C@@H]2C1)C(C)(C)C)C(=O)O` (some centres unmarked) [Compound A], the EC50 in assay [1] (setting [5]) was determined as 8.3 ± 1.6 nM; in assay [2] (setting [6]), 72 ± 25 nM. Besides, the “GT6a/GT1b EC50 ratio” value in assay [2] (Table 4) is recorded as 8.7.
Regarding `C=C[C@@H]1C[C@]1(NC(=O)[C@@H]1C[C@@H]2CN1C(=O)[C@H](C(C)(C)C)NC(=O)O[C@@H]1C[C@H]1CCCCCc1nc3ccc(OC)cc3nc1O2)C(=O)NS(=O)(=O)C1CC1` [MK-5172], the EC50 in assay [3] (setting [7]) came to 1.4 ± 0.3 nM; in assay [1] (setting [5]) it was 0.74 ± 0.07 nM; in assay [1] (setting [8]) it was 0.74 ± 0.07 nM; in assay [2] it was 2.3 ± 0.3 nM; in assay [4] (setting [9]), 3 ± 0.4 nM. For the same compound, the “GT6a(K34R)/1b EC50 Ratio” value in assay [3] (Table 5) was determined as 1.9. Besides, the “GT6a/GT1b EC50 ratio” value in assay [2] (Table 4) worked out at 3.1. Further, the “GT6a(K272R)/1b EC50 ratio” value in assay [4] (Table 5) turned out to be 4.1.
`COC(=O)N[C@H](C(=O)N1CCC[C@H]1c1nc(-c2ccc(-c3ccc(-c4c[nH]c([C@@H]5CCCN5C(=O)[C@@H](NC(=O)OC)C(C)C)n4)cc3)cc2)c[nH]1)C(C)C` [Daclatasvir, daclatasvir]: the 50% effective concentration (EC50) is 0.04 ± 0.01 nM in assay [3] (setting [7]); 0.034 ± 0.018 nM in assay [1] (setting [5]); 0.034 ± 0.018 nM in assay [1] (setting [8]); 0.06 ± 0.03 nM in assay [2] (setting [6]); 0.08 ± 0.04 nM in assay [4] (setting [9]). For the same compound, the “GT6a(K34R)/1b EC50 Ratio” value in assay [3] (Table 5) was found to be 1.2. Besides, in assay [2] (Table 4), the “GT6a/GT1b EC50 ratio” value amounted to 1.8. Moreover, the “GT6a(K272R)/1b EC50 ratio” value in assay [4] (Table 5) stood at 2.4.
Take `CC(C)(C)NC(=O)N[C@H](C(=O)N1C[C@H]2[C@@H]([C@H]1C(=O)NC(CC1CCC1)C(=O)C(N)=O)C2(C)C)C(C)(C)C` (some centres unmarked) [Boceprevir, boceprevir]: the EC50 in assay [3] (setting [10]) turned out to be 168 ± 21 nM; in assay [1] (setting [5]), 188 ± 42 nM; in assay [1] (setting [8]) it was 181 ± 42 nM; in assay [2] (setting [6]) it was 177 ± 21 nM; in assay [4] (setting [11]), 185 ± 42 nM. Moreover, the “GT6a(K34R)/1b EC50 Ratio” value in assay [3] (Table 5) amounted to 0.9. For the same compound, the “GT6a/GT1b EC50 ratio” value in assay [2] (Table 4) is on record as 0.9. Further, the “GT6a(K272R)/1b EC50 ratio” value in assay [4] (Table 5) was 1.
Consider `COc1ccc2c(O[C@@H]3C[C@H]4C(=O)N[C@]5(C(=O)O)C[C@H]5/C=C\CCCCC[C@H](NC(=O)OC5CCCC5)C(=O)N4C3)cc(-c3csc(NC(C)C)n3)nc2c1` [BILN-2061], for which the results for the EC50 in assay [3] (setting [10]), in assay [1] (setting [8]) and in assay [4] (setting [11]) were 17 ± 9 nM, 0.99 ± 0.1 nM and 17 nM, respectively. In addition, the “GT6a(K34R)/1b EC50 Ratio” value in assay [3] (Table 5) amounted to 17.2. The “GT6a(K272R)/1b EC50 ratio” value in assay [4] (Table 5) was found to be 17.2.
Take `CC(C)OC(=O)[C@H](C)N[P@](=O)(OC[C@H]1O[C@@H](n2ccc(=O)[nH]c2=O)[C@](C)(F)[C@@H]1O)Oc1ccccc1` [Sofosbuvir, sofosbuvir]: the EC50 in assay [3] (setting [7]) was 14 ± 4 nM; in assay [1] (setting [5]), 39 ± 1.1 nM; in assay [1] (setting [8]), 39 ± 1.1 nM; in assay [2] (setting [6]) it was 14 ± 4.1 nM; in assay [4] (setting [9]), 14 ± 5 nM. Further, the “GT6a(K34R)/1b EC50 Ratio” value in assay [3] (Table 5) stood at 0.4. For the same compound, in assay [2] (Table 4), the “GT6a/GT1b EC50 ratio” value was 0.4. In addition, in assay [4] (Table 5), the “GT6a(K272R)/1b EC50 ratio” value is 0.4.
Consider `CCc1cc(CC[C@]2(C3CCCC3)CC(O)=C(Cc3nc4nc(C)cc(C)n4n3)C(=O)O2)cc(CC)n1` [Filibuvir, filibuvir], for which the EC50 is more than 4440 nM in assay [3] (setting [7]); 112 ± 13 nM in assay [1] (setting [5]); 112 ± 13 nM in assay [1] (setting [8]); 3540 ± 93 nM in assay [2]; 3540 ± 93 nM in assay [4] (setting [9]). The “GT6a(K34R)/1b EC50 Ratio” value in assay [3] (Table 5) is more than 40. Besides, the “GT6a/GT1b EC50 ratio” value in assay [2] (Table 4) worked out at 32. In addition, the “GT6a(K272R)/1b EC50 ratio” value in assay [4] (Table 5) came out at 31.6.
As to `Fc1ccccc1-c1nc2ccn(Cc3ccc(-c4ccc(C(F)(F)F)cc4C(F)(F)F)nn3)cc-2n1` [Tegobuvir, tegobuvir], the EC50 in assay [3] (setting [7]) turned out to be 119 ± 6 nM; in assay [1] (setting [5]), 2.6 ± 0.2 nM; in assay [1] (setting [8]), 2.6 ± 0.2 nM; in assay [2] (setting [6]) it was 119 ± 6 nM; in assay [4] (setting [9]), 110 ± 21 nM. For the same compound, in assay [3] (Table 5), the “GT6a(K34R)/1b EC50 Ratio” value is recorded as 45.8. In addition, the “GT6a/GT1b EC50 ratio” value in assay [2] (Table 4) amounted to 46. In addition, the “GT6a(K272R)/1b EC50 ratio” value in assay [4] (Table 5) is recorded as 42.3.
With `CCC[C@H](NC(=O)[C@@H]1[C@H]2CCC[C@H]2CN1C(=O)[C@@H](NC(=O)[C@@H](NC(=O)c1cnccn1)C1CCCCC1)C(C)(C)C)C(=O)C(=O)NC1CC1` [Telaprevir], the concentration for a half-maximal effect (EC50) in assay [3] (setting [7]) amounted to 349 ± 20 nM; in assay [1] (setting [5]), 428 ± 22 nM; in assay [1] (setting [8]), 428 ± 22 nM; in assay [2] (setting [6]), 349 ± 20 nM; in assay [4] (setting [9]), 208 ± 41 nM. Moreover, in assay [3] (Table 5), the “GT6a(K34R)/1b EC50 Ratio” value is given as 0.8. In assay [2] (Table 4), the “GT6a/GT1b EC50 ratio” value is given as 0.8. Further, in assay [4] (Table 5), the “GT6a(K272R)/1b EC50 ratio” value was 0.5.
On to `CC1=CC[C@H](C(=O)N(c2cc(C#CC(C)(C)C)sc2C(=O)O)[C@H]2CC[C@](O)(CO[C@H]3CCOC3)CC2)CC1` [Compound C], for which the EC50 in assay [3] (setting [7]) came to 877 ± 4 nM; in assay [1] (setting [5]), 3.5 ± 0.3 nM; in assay [1] (setting [8]) it was 3.5 ± 0.3 nM; in assay [2] (setting [6]), 877 ± 4 nM; in assay [4] (setting [9]), 736 ± 18 nM. Also, the “GT6a(K34R)/1b EC50 Ratio” value in assay [3] (Table 5) was 250.6. Further, in assay [2] (Table 4), the “GT6a/GT1b EC50 ratio” value was 251. Besides, the “GT6a(K272R)/1b EC50 ratio” value in assay [4] (Table 5) is reported as 210.3.
As to `CNC(=O)c1c(-c2ccc(F)cc2)oc2cc(N(CCO)S(C)(=O)=O)c(C3CC3)cc12` [HCV-796], the EC50 in assay [3] (setting [7]) was 21 nM; in assay [1] (setting [5]), 20 ± 5.5 nM; in assay [1] (setting [8]), 20 ± 5.5 nM; in assay [2] (setting [6]) it was 21 ± 0.5 nM; in assay [4] (setting [9]) it was 21 nM. Also, in assay [3] (Table 5), the “GT6a(K34R)/1b EC50 Ratio” value was 1.1. Moreover, in assay [2] (Table 4), the “GT6a/GT1b EC50 ratio” value came to 1.0. Further, the “antiviral activity against GT6a compared with GT1b” value in assay [2] (summary of Table 4) is listed as “retained activity against GT6a”. Moreover, the “GT6a(K272R)/1b EC50 ratio” value in assay [4] (Table 5) is recorded as 1.1.
Regarding `CN(C)CCN(C)[C@H]1COc2ccccc2-c2c(C3CCCCC3)c3ccc(C(=O)O)cc3n2C1` [MK-3281], the EC50 in assay [3] (setting [7]) came to 1280 ± 471 nM; in assay [1] (setting [8]) it was 534 ± 47 nM; in assay [4] (setting [9]), 1310 ± 635 nM. The “GT6a(K34R)/1b EC50 Ratio” value in assay [3] (Table 5) is 2.4. The “GT6a(K272R)/1b EC50 ratio” value in assay [4] (Table 5) is recorded as 2.5.
As for `COC(=O)N[C@H](C(=O)N1CC2(CC2)C[C@H]1c1nc(-c2ccc3c(c2)C(F)(F)c2cc(-c4ccc5cc([C@@H]6[C@H]7CC[C@H](C7)N6C(=O)[C@@H](NC(=O)OC)C(C)C)[nH]c5c4)ccc2-3)c[nH]1)C(C)C` [Compound B], the EC50 came out at 0.007 ± 0.003 nM in assay [1] (setting [5]) and 0.79 ± 0.05 nM in assay [2] (setting [6]). The “GT6a/GT1b EC50 ratio” value in assay [2] (Table 4) is 113.

The term EC50 denotes the concentration that produces a half-maximal response.

For the origin of these results see patent US9353423B2, “HCV genotype 6 replicons” (priority 2012, dated 2016).
